In patent US20210015134A1, “CONSUMABLES” (Givaudan S.A., priority 2006, published 2021):

Assays:
[1] = system: sweet sensitive panelists; assay: Ranking test, near threshold sweetness isointensity of enhancer in water (Example 3b); type: in vivo
Protocol: The sensory evaluation was conducted using a ranking method. Samples at ambient temperature were randomly presented in 15 ml blind aliquots (unidentifiable by panelists). […] After tasting each sample, the mouth was rinsed thoroughly with water at ambient temperature prior to tasting the next sample. […] They were asked to rank the samples from low to high with respect to perceived sweet taste.

[2] = system: sucrose sweetness; settings: at its sweetness detection threshold; Kroeze et al., Chem. Senses 2000; cited from earlier work
[3] = system: sweet sensitive panelists; assay: Forced choice test of sweetness enhancers with sweetness rating (Example 2); type: in vivo; settings: scale 0-10
Protocol: A forced choice test of sweetness enhancers in water, 2% sucrose and 7% sucrose
All sweetness enhancer samples were evaluated at the same concentration, which was selected close to the threshold of each sweetness enhancer, in 0% sucrose (water), 2% sucrose, and 7% sucrose.
The test samples were evaluated by a sensory panel of 10 sweet sensitive panelists. Samples were presented in 3 replicates to each panelist to give n=30 evaluations for each panel. The sensory evaluation was conducted using a forced choice method. Samples were presented blind, unidentifiable by panelists. Three runs at different sucrose concentrations were performed (0% sucrose (water/negative control), 2% sucrose, 7% sucrose). In each run, the sweetness enhancer sample was compared by panelists to a corresponding sample without sweetness enhancer at the same sucrose concentration. Panelists were instructed that they had to choose one of the samples as sweeter. The data was analyzed using beta-binomial analysis. […]
Alternatively, 0% (water), 0.5% and/or 1% and/or 1.5% sucrose were used for samples/corresponding controls and evaluated accordingly.
As a further control, the sweetness enhancer in water was compared to 0.5% and/or 1% and/or 1.5% sucrose. The result determined the sweetness intensity of the sweetness enhancer compound as such, without the sweetness due to the enhancement of sucrose.

SMILES	isointensity to sucrose solution ([1]; 2 ppm in water)	NDHC sample sweetness ([1]; 2 ppm in water vs 0.5% sucrose)	NDHC sample sweetness ([1]; 2 ppm in water vs 1% sucrose)	enhancement of sucrose sweetness [2]	rating 1% sucrose ([3]; rating 2 of Example 12B)	rating 1% sucrose ([3]; rating 2 of Example 12C)
COc1ccc(CCC(=O)c2c(O)cc(O[C@@H]3O[C@H](CO)[C@@H](O)[C@H](O)[C@H]3O[C@@H]3O[C@@H](C)[C@H](O)[C@@H](O)[C@H]3O)cc2O)cc1O [NDHC, Neohesperidin dihydrochalcone]	0.5 % sucrose	isosweet	less sweet	does not enhance sucrose sweetness	–	–
OC[C@H]1O[C@@](CO)(O[C@H]2O[C@H](CO)[C@@H](O)[C@H](O)[C@H]2O)[C@@H](O)[C@@H]1O [sucrose, α-D-glucopyranosyl-(1→2)-β-D-fructofuranose]	–	–	–	–	0.81 ± 0.08	0.72 ± 0.06
